Activity data for 5 molecules are collected here from publication PMC8871760, “Assessment of Five Pesticides as Endocrine-Disrupting Chemicals: Effects on Estrogen Receptors and Aromatase” (International Journal of Environmental Research and Public …, 2022).

This assay addresses T1, recombinant form of human aromatase (Homo sapiens, UniProt P11511).
T1 construct: gene CYP19A1; purified recombinant; assayed with equimolar human CPR; with NADPH--cytochrome P450 reductase
T1 sequence (P11511 1-503): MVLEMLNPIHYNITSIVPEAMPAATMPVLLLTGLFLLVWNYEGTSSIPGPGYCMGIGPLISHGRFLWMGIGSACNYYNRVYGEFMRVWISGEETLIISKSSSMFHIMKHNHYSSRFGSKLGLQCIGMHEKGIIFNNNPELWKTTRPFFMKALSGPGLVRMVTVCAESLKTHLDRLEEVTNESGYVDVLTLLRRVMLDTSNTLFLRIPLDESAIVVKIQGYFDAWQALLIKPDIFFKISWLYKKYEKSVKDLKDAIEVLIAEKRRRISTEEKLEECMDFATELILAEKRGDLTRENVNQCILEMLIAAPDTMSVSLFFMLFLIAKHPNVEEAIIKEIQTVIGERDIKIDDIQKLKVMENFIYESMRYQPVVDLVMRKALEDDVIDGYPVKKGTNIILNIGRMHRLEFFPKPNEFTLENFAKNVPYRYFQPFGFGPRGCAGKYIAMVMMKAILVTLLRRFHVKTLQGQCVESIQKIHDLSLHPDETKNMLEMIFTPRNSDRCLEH
T1 sequence (P16435 2-677 partner): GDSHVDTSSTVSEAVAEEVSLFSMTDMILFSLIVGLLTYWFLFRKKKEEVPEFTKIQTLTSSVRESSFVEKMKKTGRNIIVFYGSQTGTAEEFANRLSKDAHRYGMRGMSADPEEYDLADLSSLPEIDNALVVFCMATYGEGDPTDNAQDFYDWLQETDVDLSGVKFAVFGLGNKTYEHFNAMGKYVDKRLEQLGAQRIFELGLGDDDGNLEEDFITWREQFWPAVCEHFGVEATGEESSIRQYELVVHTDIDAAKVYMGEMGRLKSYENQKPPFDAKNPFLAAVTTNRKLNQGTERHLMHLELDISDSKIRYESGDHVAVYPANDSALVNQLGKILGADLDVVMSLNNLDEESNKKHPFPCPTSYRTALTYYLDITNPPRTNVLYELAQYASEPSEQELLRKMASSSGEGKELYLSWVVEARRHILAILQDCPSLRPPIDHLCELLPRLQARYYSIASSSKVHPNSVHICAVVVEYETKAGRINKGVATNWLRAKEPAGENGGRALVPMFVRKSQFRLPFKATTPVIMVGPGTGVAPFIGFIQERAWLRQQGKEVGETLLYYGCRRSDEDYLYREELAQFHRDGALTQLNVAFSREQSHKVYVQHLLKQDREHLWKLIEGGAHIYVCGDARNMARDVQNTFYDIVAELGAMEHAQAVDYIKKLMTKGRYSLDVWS
Put plainly: estrone ELISA of aromatase reaction. The format is biochemical. The conditions noted are these: read-out: Relative Activity (% of C+) / 5 × 10^-6 M. The source says:
estrone ELISA of aromatase reaction on recombinant form of human aromatase
For `CN/C(=N\[N+](=O)[O-])NCc1cnc(Cl)s1` [Clothianidin], the activity at 5 µM came out at 97.9 ± 5.2%.
The figure for `C/C(=N\C#N)N(C)Cc1ccc(Cl)nc1` [Acetamiprid] is 87.5 ± 17.6%; for `CN1COCN(Cc2cnc(Cl)s2)C1=N[N+](=O)[O-]` [Thiamethoxam] it is 95.6 ± 17.1%.
In the case of `CNC(=O)Oc1cc(C)c(SC)c(C)c1` [Methiocarb], the activity at 5 µM came out at 90.9 ± 5.4%.
Then `CC(C)Oc1cc(-n2nc(C(C)(C)C)oc2=O)c(Cl)cc1Cl` [Oxadiazon], with 101 ± 16.7%.
